Laboratory results reported in patent publication US12077503B2, “Substituted cyclic amides and their use as herbicides” (FMC CORPORATION, priority 2015, dated 2024).

What was measured:
Format in all cases: in vivo
[1] = test system: redroot pigweed (Amaranthus retroflexus); assay: Test G Pre-Emergence Protocol; details: Amaranthus retroflexus, pre-emergence, 312 h, evaluated after 13 days
How it was run: (§1)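 Glasshouse pre-emergence test: soil-sown seeds, sprayed after 1 d at 15.625, 62.5 or 250 g/ha. Conditions 24/16° C day/night, 14 h light, 65% humidity, watering twice daily. Rating 13 d post-spray (100 = total damage).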

[2] = test system: ivy-leaved morning glory (Ipomoea hederacea); assay: Test G Pre-Emergence Protocol; details: Ipomoea, pre-emergence, 312 h, evaluated after 13 days
How it was run: as §1

[3] = test system: giant foxtail (Setaria faberi); assay: Test G Pre-Emergence Protocol; details: Setaria faberi, pre-emergence, 312 h, evaluated after 13 days
How it was run: as §1

[4] = test system: barnyardgrass (Echinochloa crus-galli); assay: Test G Pre-Emergence Protocol; details: Echinochloa crus-galli, pre-emergence, 312 h, evaluated after 13 days
How it was run: as §1

corn (Zea mays) [5] = assay: Test G Pre-Emergence Protocol; details: Zea mays, pre-emergence, 312 h, evaluated after 13 days
How it was run: as §1

[6] = test system: velvetleaf (Abutilon theophrasti); assay: Test G Pre-Emergence Protocol; details: Abutilon theophrasti, pre-emergence, 312 h, evaluated after 13 days
How it was run: as §1

[7] = test system: redroot pigweed (Amaranthus retroflexus); assay: Test G Post-Emergence Protocol; details: Amaranthus retroflexus, post-emergence, 312 h, read-out: Pigweed, Redroot damage rating
How it was run: (§2)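 Pot-grown seedlings, 8 days old, raised in a glasshouse at 24/16 °C day/night with 14 h light and 65% humidity, were sprayed post-emergence with test compound in acetone/water (50:50) plus 0.5% Tween 20 at 15.625, 62.5 or 250 g/ha. Damage was scored visually 13 days later on a 0–100 scale (100 = total damage).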

[8] = test system: ivy-leaved morning glory (Ipomoea hederacea); assay: Test G Post-Emergence Protocol; details: Ipomoea, post-emergence, 312 h, read-out: Morningglory, Ivy-leaved damage rating
How it was run: as §2

[9] = test system: giant foxtail (Setaria faberi); assay: Test G Post-Emergence Protocol; details: Setaria faberi, post-emergence, 312 h, read-out: Foxtail, Giant damage rating
How it was run: as §2

[10] = test system: barnyardgrass (Echinochloa crus-galli); assay: Test G Post-Emergence Protocol; details: Echinochloa crus-galli, post-emergence, 312 h, read-out: Barnyardgrass damage rating
How it was run: as §2

corn (Zea mays) [11] = assay: Test G Post-Emergence Protocol; details: Zea mays, post-emergence, 312 h, read-out: Corn damage rating
How it was run: as §2

[12] = test system: velvetleaf (Abutilon theophrasti); assay: Test G Post-Emergence Protocol; details: Abutilon theophrasti, post-emergence, 312 h, read-out: Velvetleaf damage rating
How it was run: as §2

[13] = 15.625 g ai/ha, evaluated after 13 days (100=total damage to plant; 0=no damage to plant)
[14] = 62.5 g ai/ha, evaluated after 13 days, 100=total damage to plant, 0=no damage to plant
[15] = 250 g ai/ha, evaluated after 13 days, 100=total damage to plant, 0=no damage to plant

SMILES: CN1C[C@@H](c2ccc(C(F)(F)F)cc2)[C@H](C(=O)Nc2n[nH]cc2Cl)C1=O (racemic) [Compound 1658]
- pest or weed control at 15.625 g/ha ([1]; 15.625 g ai/ha, read-out: Pigweed, Redroot damage rating (100=total damage to plant; 0=no damage to plant)): 0%
- pest or weed control at 62.5 g/ha ([1]; 62.5 g ai/ha, 100=total damage to plant, 0=no damage to plant, read-out: Pigweed, Redroot damage rating): 0%
- pest or weed control at 250 g/ha ([1]; 250 g ai/ha, read-out: Pigweed, Redroot damage rating (100=total damage to plant; 0=no damage to plant)): 0%
- pest or weed control at 15.625 g/ha ([2]; 15.625 g ai/ha, read-out: Morningglory, Ivy-leaved damage rating (100=total damage to plant; 0=no damage to plant)): 0%
- pest or weed control at 62.5 g/ha ([2]; 62.5 g ai/ha, 100=total damage to plant, 0=no damage to plant, read-out: Morningglory, Ivy-leaved damage rating): 0%
- pest or weed control at 250 g/ha ([2]; 250 g ai/ha, read-out: Morningglory, Ivy-leaved damage rating (100=total damage to plant; 0=no damage to plant)): 0%
- pest or weed control at 15.625 g/ha ([3]; 15.625 g ai/ha, read-out: Foxtail, Giant damage rating (100=total damage to plant; 0=no damage to plant)): 0%
- pest or weed control at 62.5 g/ha ([3]; 62.5 g ai/ha, 100=total damage to plant, 0=no damage to plant, read-out: Foxtail, Giant damage rating): 0%
- pest or weed control at 250 g/ha ([3]; 250 g ai/ha, read-out: Foxtail, Giant damage rating (100=total damage to plant; 0=no damage to plant)): 0%
- pest or weed control at 15.625 g/ha ([4]; 15.625 g ai/ha, read-out: Barnyardgrass damage rating (100=total damage to plant; 0=no damage to plant)): 0%
- pest or weed control at 62.5 g/ha ([4]; 62.5 g ai/ha, 100=total damage to plant, 0=no damage to plant, read-out: Barnyardgrass damage rating): 0%
- pest or weed control at 250 g/ha ([4]; 250 g ai/ha, read-out: Barnyardgrass damage rating (100=total damage to plant; 0=no damage to plant)): 0%
- plant injury at 15.625 g/ha (corn (Zea mays) [5]; 15.625 g ai/ha, read-out: Corn damage rating (100=total damage to plant; 0=no damage to plant)): 0%
- plant injury at 62.5 g/ha (corn (Zea mays) [5]; 62.5 g ai/ha, 100=total damage to plant, 0=no damage to plant, read-out: Corn damage rating): 0%
- plant injury at 250 g/ha (corn (Zea mays) [5]; 250 g ai/ha, read-out: Corn damage rating (100=total damage to plant; 0=no damage to plant)): 0%
- pest or weed control at 15.625 g/ha ([6]; 15.625 g ai/ha, read-out: Velvetleaf damage rating (100=total damage to plant; 0=no damage to plant)): 0%
- pest or weed control at 62.5 g/ha ([6]; 62.5 g ai/ha, 100=total damage to plant, 0=no damage to plant, read-out: Velvetleaf damage rating): 0%
- pest or weed control at 250 g/ha ([6]; 250 g ai/ha, read-out: Velvetleaf damage rating (100=total damage to plant; 0=no damage to plant)): 0%
- pest or weed control at 15.625 g/ha [7, 13]: 0%
- pest or weed control at 62.5 g/ha [7, 14]: 10%
- pest or weed control at 250 g/ha [7, 15]: 40%
- pest or weed control at 15.625 g/ha [8, 13]: 0%
- pest or weed control at 62.5 g/ha [8, 14]: 0%
- pest or weed control at 250 g/ha [8, 15]: 20%
- pest or weed control at 15.625 g/ha [9, 13]: 0%
- pest or weed control at 62.5 g/ha [9, 14]: 0%
- pest or weed control at 250 g/ha [9, 15]: 20%
- pest or weed control at 15.625 g/ha [10, 13]: 0%
- pest or weed control at 62.5 g/ha [10, 14]: 0%
- pest or weed control at 250 g/ha [10, 15]: 20%
- plant injury at 15.625 g/ha (corn (Zea mays) [11]; [13]): 0%
- plant injury at 62.5 g/ha (corn (Zea mays) [11]; [14]): 0%
- plant injury at 250 g/ha (corn (Zea mays) [11]; [15]): 10%
- pest or weed control at 15.625 g/ha [12, 13]: 0%
- pest or weed control at 62.5 g/ha [12, 14]: 0%
- pest or weed control at 250 g/ha [12, 15]: 10%
